Tests used:
Format in all cases: functional
Conditions in all cases: route oral
Mus musculus [1] = assay: Percentage of the number of platelets for the treated versus mitomycin C(MMC) control group in the MMC-induced thrombocytopenic mice at a dose of 100 mg/kg following peroral administration
Mus musculus [2] = assay: Percentage of the number of platelets for the treated versus mitomycin C(MMC) control group in the MMC-induced thrombocytopenic mice at a dose of 32 mg/kg following peroral administration
Mus musculus [3] = assay: Percentage of the number of platelets for the treated versus mitomycin C(MMC) control group in the MMC-induced thrombocytopenic mice at a dose of 10 mg/kg following peroral administration

SMILES	No. of platelets (Mus musculus [1]) [%]	No. of platelets (Mus musculus [2]) [%]	No. of platelets (Mus musculus [3]) [%]
Nc1ncc(Sc2ccccn2)s1	147	–	–
Nc1ncc([S+]([O-])c2cccnc2)s1 (configuration not stated)	–	115	–
Nc1ncc(C(=O)c2ccccn2)s1	140	–	–
Nc1ncc([S+]([O-])c2nccs2)s1 (configuration not stated)	146	–	–
Cc1nc(N)sc1[S+]([O-])c1ccccn1 (configuration not stated)	118	–	–
Cc1ccc2nc([S+]([O-])c3cnc(N)s3)ccc2c1 (configuration not stated)	146	–	–
Nc1ncc([S+]([O-])c2ccc3cc(F)ccc3n2)s1 (configuration not stated)	162	–	–
Nc1ncc([S+]([O-])c2cccc3cccnc23)s1 (configuration not stated)	188	123	116
Nc1ncc([S+]([O-])c2cccs2)s1 (configuration not stated)	138	–	–
CNc1ncc([S+]([O-])c2ccccn2)s1 (configuration not stated)	132	–	–
Nc1ncc(S(=O)(=O)c2ccccn2)s1	139	143	94
Nc1ncc([S+]([O-])c2nc3ccccc3[nH]2)s1 (configuration not stated)	165	112	92
[O-][S+](c1ccccn1)c1cncs1 (configuration not stated)	171	148	124
Nc1ccc(S(=O)(=O)c2ccc(N)cc2)cc1 [DAPSONE]	150	125	91
Nc1ncc([S+]([O-])c2ccccn2)s1 (configuration not stated)	–	154	–
Nc1ncc([S+]([O-])c2ncccn2)s1 (configuration not stated)	–	116	–
Nc1ncc([S+]([O-])c2cnc3ccccc3n2)s1 (configuration not stated)	131	–	–
Nc1ncc([S+]([O-])c2ccc3ccccc3n2)s1 (configuration not stated)	181	153	138
Nc1nnc([S+]([O-])c2ccc3ccccc3n2)s1 (configuration not stated)	102	–	–
Nc1ncc([S+]([O-])c2ccc3cccnc3n2)s1 (configuration not stated)	–	130	–
